Source: patent US20150366836A1, “METHOD AND PHARMACEUTICAL COMPOSITION FOR TREATING COLORECTAL CANCER” (National Dong Hua University, priority 2014, published 2015)

Tests used:
Caco2 cells [1] = test: Cell cycle analysis by flow cytometer (PI staining), Caco2 cells; type: cell-based
Experimental: (§1) The results of Example 2 in cell viability hinted the effects of HCD, PG, and 5-FU on arresting cell cycle. In this example, the phase of cell cycle of Caco2 and HT-29 cells after the treatment listed in Table 1 was determined by flow cytometer. Briefly, 7×10^4 cells per well were inoculated in 12-wells plate and incubated overnight at 37° C., 5% CO2. Then, cells were treated according to the treatment listed in Table 1 by indicated time period. After treatment, cells were harvested by trypsin and fixed with 70% ethanol at −20° C. for at least 3 hr. The cells were washed in cold PBS twice and then incubated with 1 mL (v/v) staining solution (20 μg/mL propidium iodide (PI), 0.1% Triton X-100, 0.2 mg/mL Rnase) at 37° C. for 30 minutes. Lastly, cells were analyzed by flow cytometer (Cytomics™ FC500, Backman, Fullerton, Calif., USA). Data from 10,000 cells were collected for each experimental group.

[2] = system: mouse bearing inflammatory bowel disease (IBD), AOM/DSS induced; test: Mouse model bearing IBD (AOM/DSS induced), body weight and H&E staining of intestine; type: in vivo, C57/BL6 mice
Experimental: The animal experiments were approved by the National Dong-Hwa University Animal Ethics Committee and the experimental protocols were used according to the “Guide for the Care and Use of Laboratory Animals” of National Dong-Hwa University. On day 0, C57/BL6 mice (6-8 weeks old) were weighted and injected (intraperitoneal; i.p.) with 10 mg/kg body weight of azoxymethane (AOM) and then fed with 2% Dextran sodium sulfate solution (DSS solution) via water every day for 7 days. On day 8, the 2% DSS solution was changed to normal water for another 7 days. The cycle of DSS solution and water was repeated and the induction procedure was completed on day 35.
After the establishment of IBD in the experimental mice (on day 35), the mice were injected (i.p.) with 5-FU (15 mg/kg body weight) or HCD (0.64, 1.6, or 6.4 mg/kg body weight) once every three days for additional 30 days. Then, the mice were sacrificed. The colon, spleen, liver, and kidney thereof were immediately removed, observed, and further examined by H&E staining.

HT-29 cells [3] = test: Cell cycle analysis by flow cytometer (PI staining), HT-29 cells; type: cell-based
Experimental: as §1

HT-29 cells [4] = test: MTT assay cell viability, HT-29 cells; type: cell-based
Experimental: (§2) Two cell lines were used in this study, Caco2 cells and HT-29 cells. Both of them are colorectal cancer cells. Caco2 cells and HT-29 cells were maintained in DMEM (or RPMI) supplemented with 20% or 10% fetal bovine serum (FBS; GIBCO), pH 7.4 at 37° C. with continuous circulation of 5% CO2 incubator. The medium was changed every 2 days and the cells were trypsinized using trypsin/EDTA when reaching 80%-90% confluence.
(§3) In this example, the effects of HCD, PG, and 5-FU on the viability of Caco2 cells and HT-29 cells were examined. The MTT assay was employed for this purpose. The MTT (3-(4-,5-dimethylthiazol-2-yl)-2,5-diphenyltetrazolium bromide) assay is a common colorimetric method in the field for cell viability analysis. MTT (yellow tetrazolium salt) is reduced to a purple formazan by living cells and detection to the purple formazan can be calculated as the cell viability.
(§4) Briefly, cells (Caco2 or HT-29) were seeded in 96-well plate (7×10^3 cell per well) and incubated overnight (37° C., 5% CO2).
(§5) On the other hand, in the pretreatment analysis, cells (Caco2 or HT-29) were seeded in 96-well plate (7×10^3 cell per well) and incubated overnight (37° C., 5% CO2). In according to the treatments listed in the Table 1, Cells were pre-treated by HCD or PG for 6, 12, 24, 36, or 48 hr and then were treated by 5-FU for additional 24 hr.

Caco2 cells [5] = test: MTT assay cell viability, Caco2 cells; type: cell-based
Experimental: as §2, §3, §4, §5

## CC1=CCCC2C1(C)CCC(C)C2(C)CCC1=CC(=O)OC1O (stereo not drawn) [HCD, 16-hydroxy-cleroda-3,13-dine-15,16-olide]
Caco2 cells [1]; Caco2
  cell cycle arrest at sub-G1 phase vs control (in words): increased cell cycle arrest at sub-G1 phase
Caco2 cells [1]; Caco2, 0.5 μM, 36 hr
  G0/G1 (%): 43.8 ± 3.81%
  G2/M (%): 20.37 ± 4.24%
  S (%): 17.3 ± 0.44%
  Sub G1 (%): 14.4 ± 1.73%
Caco2 cells [1]; Caco2, 0.5 μM, 48 hr
  G0/G1 (%): 44.13 ± 3.26%
  G2/M (%): 21.2 ± 2.46%
  S (%): 15.93 ± 0.9%
  Sub G1 (%): 14.47 ± 5.05%
Caco2 cells [1]; Caco2, 2 μM, 36 hr
  G0/G1 (%): 29.73 ± 4.22 %
  G2/M (%): 23.73 ± 3.91%
  S (%): 13.03 ± 0.5%
  Sub G1 (%): 28.8 ± 4.2 %
Caco2 cells [1]; Caco2, 2 μM, 48 hr
  G0/G1 (%): 25.73 ± 4.63%
  G2/M (%): 22.03 ± 2.11%
  S (%): 11.63 ± 1.08%
  Sub G1 (%): 36.17 ± 7.48 %
Caco2 cells [1]; Caco2, 5 μM, 36 hr
  G0/G1 (%): 19.4 ± 1.82 %
  G2/M (%): 14.77 ± 0.8%
  S (%): 9.9 ± 0.98 %
  Sub G1 (%): 51.77 ± 1.65 %
Caco2 cells [1]; Caco2, 5 μM, 48 hr
  G0/G1 (%): 15.67 ± 6.25 %
  G2/M (%): 12.9 ± 0.87%
  S (%): 9.87 ± 0.55%
  Sub G1 (%): 54.2 ± 0.62 %
Caco2 cells [1]; Caco2, 12 and 24 hr pretreatment of 1 or 2 μM, then 5-FU
  G2/M phase after pre-treatment then 5-FU (in words): decreased
[2]; 0.64 mg/kg body weight i.p.
  intestine villus arrangement (H&E staining): irregular arrangement of villus
  lymph node (H&E staining): not infiltrated into muscle mucosa layer
[2]; 0.64 mg/kg body weight i.p. once every three days, 30 days
  body weight: initially reduced
[2]; 1.6 mg/kg body weight i.p.
  intestine villus arrangement (H&E staining): arranged in neat rows nearly as seen in the control mice
  lymph node (H&E staining): not infiltrated into muscle mucosa layer
[2]; 6.4 mg/kg body weight i.p.
  intestine villus arrangement (H&E staining): arranged in neat rows nearly as seen in the control mice
  lymph node (H&E staining): not infiltrated into muscle mucosa layer
HT-29 cells [3]; HT-29
  cell cycle arrest at sub-G1 phase vs control (in words): increased cell cycle arrest at sub-G1 phase
HT-29 cells [3]; HT-29, 0.5 μM, 24 hr
  G0/G1 (%): 82.9 ± 0.849 %
  G2/M (%): 8.2 ± 0 %
  S (%): 3.3 ± 0.424 %
  Sub G1 (%): 4.35 ± 0.495%
HT-29 cells [3]; HT-29, 0.5 μM, 36 hr
  G0/G1 (%): 59.25 ± 0.54%
  G2/M (%): 14.25 ± 1.01 %
  S (%): 15.85 ± 1.68%
  Sub G1 (%): 7.7 ± 0.81%
HT-29 cells [3]; HT-29, 2 μM, 24 hr
  G0/G1 (%): 33.9 ± 1.414 %
  G2/M (%): 22 ± 1.414%
  S (%): 17.95 ± 0.212%
  Sub G1 (%): 20.7 ± 0.707 %
HT-29 cells [3]; HT-29, 2 μM, 36 hr
  G0/G1 (%): 35.95 ± 1.34 %
  G2/M (%): 9.05 ± 1.485 %
  S (%): 7.8 ± 0.14 %
  Sub G1 (%): 43.95 ± 3.89 %
HT-29 cells [3]; HT-29, 5 μM, 24 hr
  G0/G1 (%): 27.5 ± 4.808%
  G2/M (%): 23.5 ± 2.97%
  S (%): 15.1 ± 2.546%
  Sub G1 (%): 22.95 ± 7.99 %
HT-29 cells [3]; HT-29, 5 μM, 36 hr
  G0/G1 (%): 16.4 ± 4.95 %
  G2/M (%): 11.15 ± 1.20 %
  S (%): 7.5 ± 1.13 %
  Sub G1 (%): 62 ± 6.93 %
HT-29 cells [3]; HT-29, pre-treatment, then 5-FU
  cell cycle phases after pre-treatment then 5-FU (in words): increase of sub G1 phase and decrease of G2/M phase
HT-29 cells [4]; HT-29, pre-treatment 6-48 hr, then 5-FU 2 μM 24 hr
  effect of pre-treating on efficacy of 5-FU in the subsequent treatment (MTT): significantly enhanced the efficacy of 5-FU
HT-29 cells [4]; HT-29 cells, 36 hr treatment
  IC50: 5 µM
Caco2 cells [5]; Caco2, pre-treatment 6-48 hr, then 5-FU 2 μM 24 hr
  effect of pre-treating on efficacy of 5-FU in the subsequent treatment (MTT): significantly enhanced the efficacy of 5-FU
Caco2 cells [5]; Caco2 cells, 48 hr treatment
  IC50: 5 µM
